Results: patent publication US9944602B2, “Piperidinone herbicides” (E. I. DU PONT DE NEMOURS AND COMPANY, priority 2014, dated 2018)

Key:
Format in all cases: in vivo
[1] = system: barnyardgrass (Echinochloa crus-galli); test: Test A preemergence barnyardgrass; conditions: 0 to 100 scale
How it was run: (§1)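 Compounds in non-phytotoxic solvent with surfactant, applied preemergence as directed soil spray on seeds in loam–sand blend, or postemergence to plants 2–10 cm tall at one- to two-leaf stage. Greenhouse ~10 d, then visual injury versus untreated controls, 0 (no effect) to 100 (complete control).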

[2] = system: sedge, umbrella (small-flower umbrella sedge, Cyperus difformis); test: Test B flooded paddy test sedge, umbrella; conditions: Table B, Flood, 250 g ai/ha, scale 0 to 100
How it was run: (§2)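 2-leaf plants; flood 3 cm over soil; cpd into paddy water; water depth kept; greenhouse 13–15 d; visual rating vs controls.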

[3] = system: foxtail, giant (giant foxtail, Setaria faberii); test: Test A preemergence foxtail, giant; conditions: 0 to 100 scale, 0 no effect, 100 complete control
How it was run: as §1

corn (Zea mays) [4] = test: Test A preemergence corn; conditions: 0 to 100 scale
From the text: (§3) Seeds of plant species selected from barnyardgrass (Echinochloa crus-galli), kochia (Kochia scoparia), ragweed (common ragweed, Ambrosia elatior), ryegrass, Italian (Italian ryegrass, Lolium multiflorum), crabgrass, large (large crabgrass, Digitaria sanguinalis), foxtail, giant (giant foxtail, Setaria faberii), morningglory (Ipomoea spp.), pigweed (Amaranthus retroflexus), velvetleaf (Abutilon theophrasti), wheat (Triticum aestivum), and corn (Zea mays) were planted into a blend of loam soil and sand and treated preemergence with a directed soil spray using test chemicals formulated in a non-phytotoxic solvent mixture which included a surfactant.
(§4) At the same time, plants selected from these crop and weed species and also blackgrass (Alopecurus myosuroides), and galium (catchweed bedstraw, Galium aparine) were planted in pots containing the same blend of loam soil and sand and treated with postemergence applications of test chemicals formulated in the same manner. Plants ranged in height from 2 to 10 cm and were in the one- to two-leaf stage for the postemergence treatment. Treated plants and untreated controls were maintained in a greenhouse for approximately 10 d, after which time all treated plants were compared to untreated controls and visually evaluated for injury. Plant response ratings, summarized in Table A, are based on a 0 to 100 scale where 0 is no effect and 100 is complete control. A dash (-) response means no test result.

rice (Oryza sativa) = test: Test B flooded paddy test rice; conditions: Table B, Flood, 250 g ai/ha, scale 0 to 100
How it was run: as §2

[5] = system: foxtail, giant (giant foxtail, Setaria faberii); test: Test A postemergence foxtail, giant; conditions: 0 to 100 scale, 0 is no effect, 100 is complete control
How it was run: as §1

[6] = system: ducksalad (Heteranthera limosa); test: Test B flooded paddy test ducksalad; conditions: Table B, Flood, 250 g ai/ha, scale 0 to 100
How it was run: as §2

[7] = system: wheat (Triticum aestivum); test: Test A postemergence wheat; conditions: 0 to 100 scale, 0 is no effect, 100 is complete control
How it was run: as §1

[8] = system: wheat (Triticum aestivum); test: Test A preemergence wheat; conditions: 0 to 100 scale, 0 no effect, 100 complete control
From the text: as §3, §4

[9] = system: barnyardgrass (Echinochloa crus-galli); test: Test B flooded paddy test barnyardgrass; conditions: Table B, Flood, 250 g ai/ha, scale 0 to 100
How it was run: as §2

[10] = system: pigweed (Amaranthus retroflexus); test: Test A preemergence pigweed; conditions: 0 to 100 scale, 0 no effect, 100 complete control
How it was run: as §1

[11] = system: velvetleaf (Abutilon theophrasti); test: Test A postemergence velvetleaf; conditions: 0 to 100 scale, 0 is no effect, 100 is complete control
From the text: as §3, §4

[12] = system: crabgrass, large (large crabgrass, Digitaria sanguinalis); test: Test A preemergence crabgrass, large; conditions: 0 to 100 scale
From the text: as §3, §4

[13] = system: morningglory (Ipomoea spp.); test: Test A preemergence morningglory; conditions: 0 to 100 scale, 0 no effect, 100 complete control
From the text: as §3, §4

[14] = system: barnyardgrass (Echinochloa crus-galli); test: Test A postemergence barnyardgrass; conditions: 0 to 100 scale, 0 is no effect, 100 is complete control
How it was run: as §1

corn (Zea mays) [15] = test: Test A postemergence corn; conditions: 0 to 100 scale, 0 is no effect, 100 is complete control
How it was run: as §1

[16] = system: morningglory (Ipomoea spp.); test: Test A postemergence morningglory; conditions: 0 to 100 scale, 0 is no effect, 100 is complete control
From the text: as §3, §4

[17] = system: velvetleaf (Abutilon theophrasti); test: Test A preemergence velvetleaf; conditions: 0 to 100 scale, 0 no effect, 100 complete control
From the text: as §3, §4

[18] = system: pigweed (Amaranthus retroflexus); test: Test A postemergence pigweed; conditions: 0 to 100 scale, 0 is no effect, 100 is complete control
How it was run: as §1

[19] = system: crabgrass, large (large crabgrass, Digitaria sanguinalis); test: Test A postemergence crabgrass, large; conditions: 0 to 100 scale, 0 is no effect, 100 is complete control
From the text: as §3, §4

[20] = 125 g ai/ha, 0 no effect, 100 complete control
[21] = 500 g ai/ha, 0 is no effect, 100 is complete control

Compound: O=C1NCCC(c2ccc(F)c(F)c2)C1C(=O)Nc1ccccc1F (racemic) [Compound 1]
- Barnyardgrass plant response rating [1, 20]: 0
- Plant response rating, Barnyardgrass [1, 21]: 70
- Plant response rating [2]: 0
- Foxtail, Giant plant response rating ([3]; 125 g ai/ha): 30
- Foxtail, Giant plant response rating ([3]; 500 g ai/ha): 90
- Corn plant response rating (corn (Zea mays) [4]; [20]): 0
- Plant response rating, Corn (corn (Zea mays) [4]; [21]): 0
- Plant response rating (rice (Oryza sativa)): 0
- Plant response rating, Foxtail, Giant ([5]; 125 g ai/ha): 0
- Plant response rating, Foxtail, Giant ([5]; 500 g ai/ha): 0
- Plant response rating [6]: 0
- Plant response rating, Wheat ([7]; 125 g ai/ha): 0
- Plant response rating, Wheat ([7]; 500 g ai/ha): 0
- Wheat plant response rating ([8]; 125 g ai/ha): 0
- Wheat plant response rating ([8]; 500 g ai/ha): 0
- Plant response rating [9]: 0
- Pigweed plant response rating ([10]; 125 g ai/ha): 0
- Pigweed plant response rating ([10]; 500 g ai/ha): 0
- Plant response rating, Velvetleaf ([11]; 125 g ai/ha): 0
- Plant response rating, Velvetleaf ([11]; 500 g ai/ha): 0
- Crabgrass, Large plant response rating [12, 20]: 80
- Plant response rating, Crabgrass, Large [12, 21]: 90
- Morningglory plant response rating ([13]; 125 g ai/ha): 0
- Morningglory plant response rating ([13]; 500 g ai/ha): 0
- Plant response rating, Barnyardgrass ([14]; 125 g ai/ha): 0
- Plant response rating, Barnyardgrass ([14]; 500 g ai/ha): 50
- Plant response rating, Corn (corn (Zea mays) [15]; 125 g ai/ha): 0
- Plant response rating, Corn (corn (Zea mays) [15]; 500 g ai/ha): 0
- Plant response rating, Morningglory ([16]; 125 g ai/ha): 0
- Plant response rating, Morningglory ([16]; 500 g ai/ha): 0
- Velvetleaf plant response rating ([17]; 125 g ai/ha): 0
- Velvetleaf plant response rating ([17]; 500 g ai/ha): 0
- Plant response rating, Pigweed ([18]; 125 g ai/ha): 0
- Plant response rating, Pigweed ([18]; 500 g ai/ha): 0
- Plant response rating, Crabgrass, Large ([19]; 125 g ai/ha): 30
- Plant response rating, Crabgrass, Large ([19]; 500 g ai/ha): 70
